In brackets after ≈: the same amount, converted by molar mass.
Tested on: Mycobacterium tuberculosis
Experiment: Antimycobacterial activity against Mycobacterium bovis BCG
Type: functional
Conditions: variant bovis BCG

Compound: Cc1ccn2c(C(=O)NCc3ccccc3)c(C)nc2c1
- MIC: 0.3 µM (≈ 0.0838 µg/mL)
